These are literature values, as cited in patent US20240410831A1, “Multi-Mode Zinc-Selective Emission-Ratiometric Fluorescent Probes for Biological Application” (Georgia Tech Research Corporation, priority 2023, published 2024).

Structures can show the parent of a compound that is named as a salt.

The conditions of series [1]: pH 7.0, 25° C.; read-out: Kd for Zn(II) of competing ligand; cited from earlier work.
For series [2] the following is noted: in 1.0 N H2SO4; cited from earlier work.

`O=C(O)CN(CCOCCOCCN(CC(=O)O)CC(=O)O)CC(=O)O` [EGTA, ethyleneglycol-bis(β-aminoethyl)-N,N,N′,N′-tetraacetic acid]: the dissociation constant Kd (usually a measure of binding affinity in units of concentration) in series [1] is 4.6 nM.

Turning to `C=C[C@H]1C[N@@]2CC[C@H]1C[C@H]2[C@H](O)c1ccnc2ccc(OC)cc12` [quinine sulfate], in series [2], the “quantum yield of reference standard” value was 0.546.
